Laboratory results taken from patent publication US20260226068A1, “IMIDAZOTRIAZINE IL-17A MODULATORS AND USES THEREOF” (DICE ALPHA, INC., priority 2023, published 2026).

Experiments:
[1] = target: T1, IL-17A/F (Homo sapiens, UniProt Q16552+Q96PD4); test: IL-17A/F HEK-Blue cell assay (SEAP reporter); format: cell-based; conditions: HEK-Blue IL-17A reporter cells, IL17A/F 5 ng/mL, 20 hours, SEAP read at A630; read-out: HEK-Blue IL17AF (IC50 for IL-17A/F inhibition)
T1 construct: purchased R&D Systems
T1 sequence (Q16552 24-155): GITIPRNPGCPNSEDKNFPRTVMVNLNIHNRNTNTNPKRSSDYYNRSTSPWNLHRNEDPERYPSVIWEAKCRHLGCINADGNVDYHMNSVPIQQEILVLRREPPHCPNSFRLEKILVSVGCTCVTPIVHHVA
T1 sequence (Q96PD4 31-163): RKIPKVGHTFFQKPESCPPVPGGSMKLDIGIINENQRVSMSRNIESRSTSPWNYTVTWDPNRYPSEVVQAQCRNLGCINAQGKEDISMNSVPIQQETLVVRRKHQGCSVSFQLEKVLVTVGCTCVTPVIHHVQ

[2] = target: T2, IL-17A/A (Homo sapiens, UniProt Q16552); test: IL-17A/A HEK-Blue cell assay (SEAP reporter); format: cell-based; conditions: HEK-Blue IL-17A reporter cells, IL17A/A 5 ng/mL, 20 hours, SEAP read at A630; read-out: HEK-Blue IL17AA (IC50 for IL-17A/A inhibition)
T2 construct: purchased Genscript Z03228
T2 sequence (Q16552 24-155): T1 sequence (Q16552 24-155)

[3] = Mouse oral bioavailability; format: in vivo; conditions: C57BL/6J mice, PO 10 mg/kg vs IV 1 mg/kg, plasma AUC, read-out: % F (Mouse), oral bioavailability
Protocol: The test compound is administered to C57BL/6J mice intravenously (IV) at 1 mg/kg or orally (PO) at 10 mg/kg using vehicles composed of 10% DMA, 70% Polyethylene glycol 400, and 20% purified water; or 10% DMA, 50% Polyethylene glycol 400, and 40% purified water. Serial blood collections occur at 0.08, 0.25, 0.5, 1, 2, 4, 8 and 24 h post IV bolus dose administration, and 0.25, 0.5, 1, 2, 4, 8 and 24 h post oral dose administration. Blood samples are treated with EDTA anticoagulant. Plasma is isolated by centrifugation and stored at −70° C. until analysis by LC-MS/MS. Test article concentration is determined in plasma and uploaded into the Phoenix WinNonlin system where noncompartmental analysis is used to calculate Area Under the Curve (AUC) for both IV and PO arms. Bioavailability (% F) is calculated via the following equation,
% F=(AUCPO×DoseIV)/(AUCIV×DosePO)×100

| Structure (SMILES) | IC50 [1] [nM] | IC50 [2] [nM] | bioavailability [3] [%] |
| --- | --- | --- | --- |
| CCn1nccc1C(=O)N[C@H](c1cn2nc(C[C@H]3C[C@@H](C(F)(F)F)CNC3=O)c(C3CCCOC3)nc2n1)[C@H]1CCCC(F)(F)C1 (single isomer, unassigned) [Compound 70] | < 100 | < 100 | 45 |
| CCn1nccc1C(=O)N[C@H](c1cn2nc(CC3C[C@@H](C(F)(F)F)CNC3=O)c(N3CCO[C@H](C)C3)nc2n1)[C@@H]1CCCC(F)(F)C1 (single isomer, unassigned) [Compound 122] | < 100 | < 100 | 51 |
| CCn1nccc1C(=O)N[C@H](c1cn2nc(C[C@H]3C[C@@H](C(F)(F)F)CNC3=O)c(C3CCOC3)nc2n1)[C@H]1CCCC(F)(F)C1 (single isomer, unassigned) [Compound 204] | 100 to 1000 | < 100 | 27 |
| O=C(N[C@H](c1cn2nc(CC3C[C@@H](C(F)(F)F)CNC3=O)c(N3CCOCC3)nc2n1)C1CCC(F)(F)CC1)c1nonc1C1CC1 (stereo partly shown) [Compound 56] | > 1000 | < 100 | 87 |
| CCn1nccc1C(=O)N[C@H](c1cn2nc(C[C@H]3C[C@@H](C(F)(F)F)CNC3=O)c(C3CCOCC3)nc2n1)C1CCC(F)(F)CC1 [Compound 88, N-((1S)-(4,4-difluorocyclohexyl)(2-(((3R,5R)-2-oxo-5-(trifluoromethyl)piperidin-3-yl)methyl)-3-(tetrahydro-2H-pyran-4-yl)imidazo[1,2-b][1,2,4]triazin-6-yl)methyl)-1-ethyl-1H-pyrazole-5-carboxamide] | 100 to 1000 | < 100 | 69 |
| CCn1nccc1C(=O)N[C@H](c1cn2nc(C[C@H]3C[C@@H](C(F)(F)F)CNC3=O)c(N3CCOC(COC)C3)nc2n1)C1CCC(F)(F)CC1 (stereo partly drawn) [Compound 416, N-((1S)-(4,4-difluorocyclohexyl)(3-(2-(methoxymethyl)morpholino)-2-(((3R,5R)-2-oxo-5-(trifluoromethyl)piperidin-3-yl)methyl)imidazo[1,2-b][1,2,4]triazin-6-yl)methyl)-1-ethyl-1H-pyrazole-5-carboxamide] | 100 to 1000 | < 100 |  |
| CCn1nccc1C(=O)N[C@H](c1cn2nc(C[C@H]3C[C@@H](C(F)(F)F)CNC3=O)c(OC(C)C)nc2n1)C1CCC(F)(F)CC1 [Compound 417, N—((S)-(4,4-difluorocyclohexyl)(3-isopropoxy-2-(((3R,5R)-2-oxo-5-(trifluoromethyl)piperidin-3-yl)methyl)imidazo[1,2-b][1,2,4]triazin-6-yl)methyl)-1-ethyl-1H-pyrazole-5-carboxamide] | > 1000 | < 100 |  |
| CCn1ccc(C(=O)N[C@H](c2cn3nc(C[C@H]4C[C@@H](C(F)(F)F)CNC4=O)c(C4CCOCC4)nc3n2)C2CCC(F)(F)CC2)n1 [Compound 418, N—((S)-(4,4-difluorocyclohexyl)(2-(((3R,5R)-2-oxo-5-(trifluoromethyl)piperidin-3-yl)methyl)-3-(tetrahydro-2H-pyran-4-yl)imidazo[1,2-b][1,2,4]triazin-6-yl)methyl)-1-ethyl-1H-pyrazole-3-carboxamide] | > 1000 | < 100 |  |
| CCc1nonc1C(=O)N[C@H](c1cn2nc(C[C@H]3C[C@@H](C(F)(F)F)CNC3=O)c(N3CCN(CCOC)CC3)nc2n1)C1CCC(F)(F)CC1 [Compound 421, N—((S)-(4,4-difluorocyclohexyl)(3-(4-(2-methoxyethyl)piperazin-1-yl)-2-(((3R,5R)-2-oxo-5-(trifluoromethyl)piperidin-3-yl)methyl)imidazo[1,2-b][1,2,4]triazin-6-yl)methyl)-4-ethyl-1,2,5-oxadiazole-3-carboxamide] | > 1000 | < 100 |  |
| CCn1ncnc1C(=O)N[C@H](c1cn2nc(C[C@H]3C[C@@H](C(F)(F)F)CNC3=O)c(C3CCOCC3)nc2n1)[C@H]1CCCC(F)(F)C1 [Compound 422, N—((S)—((S)-3,3-difluorocyclohexyl)(2-(((3R,5R)-2-oxo-5-(trifluoromethyl)piperidin-3-yl)methyl)-3-(tetrahydro-2H-pyran-4-yl)imidazo[1,2-b][1,2,4]triazin-6-yl)methyl)-1-ethyl-1H-1,2,4-triazole-5-carboxamide] | 100 to 1000 | < 100 |  |
| CCn1nccc1C(=O)N[C@H](c1cn2nc(C[C@@H]3CC4(CC4)CNC3=O)c(C3CCOCC3)nc2n1)C1CCC(F)(F)CC1 [Compound 424] | 100 to 1000 | < 100 |  |
| CCn1nccc1C(=O)N[C@H](c1cn2nc(C[C@@H]3C(=O)NC4CC3C4)c(C3CCOCC3)nc2n1)C1CCC(F)(F)CC1 [Compound 425] | > 1000 | 100 to 1000 |  |
| CCn1nccc1C(=O)N[C@H](c1cn2nc(C[C@@H]3C(=O)NC[C@H]4C[C@H]43)c(C3CCOCC3)nc2n1)C1CCC(F)(F)CC1 [Compound 428] | > 1000 | < 100 |  |
| CCn1nccc1C(=O)N[C@H](c1cn2nc(C[C@H]3C(=O)NC[C@H]4C[C@H]43)c(C3CCOCC3)nc2n1)C1CCC(F)(F)CC1 [Compound 429] | > 1000 | 100 to 1000 |  |
| CCn1nccc1C(=O)N[C@H](c1cn2nc(C[C@H]3C[C@@H](C(F)(F)F)CNC3=O)c(N3CCN(C4COC4)CC3)nc2n1)C1CCC(F)(F)CC1 [Compound 433, N—((S)-(4,4-difluorocyclohexyl)(3-(4-(oxetan-3-yl)piperazin-1-yl)-2-(((3R,5R)-2-oxo-5-(trifluoromethyl)piperidin-3-yl)methyl)imidazo[1,2-b][1,2,4]triazin-6-yl)methyl)-1-ethyl-1H-pyrazole-5-carboxamide] | 100 to 1000 | < 100 |  |
| CCn1nccc1C(=O)N[C@H](c1cn2nc(CN3C[C@@H](C(F)(F)F)NC3=O)c(C3CCOCC3)nc2n1)C1CCC(F)(F)CC1 [Compound 434] | > 1000 | 100 to 1000 |  |
| CCn1nccc1C(=O)N[C@H](c1cn2nc(CN3CC(F)(F)CNC3=O)c(C3CCOCC3)nc2n1)C1CCC(F)(F)CC1 [Compound 435] | > 1000 | 100 to 1000 |  |
| CCn1nccc1C(=O)N[C@H](c1cn2nc(CN3C[C@H](C(F)(F)F)CNC3=O)c(C3CCOCC3)nc2n1)C1CCC(F)(F)CC1 [Compound 437] | > 1000 | 100 to 1000 |  |

Now from value to molecule:

| IC50 [1] [nM] | IC50 [2] [nM] | bioavailability [3] [%] | Structure (SMILES) |
| --- | --- | --- | --- |
| 100 to 1000 | < 100 | 40 | CCn1nccc1C(=O)N[C@H](c1cn2nc(C[C@H]3C[C@@H](C(F)(F)F)CNC3=O)c(C3CCCOC3)nc2n1)[C@@H]1CCCC(F)(F)C1 (single isomer, unassigned) [Compound 69] |
| 100 to 1000 | < 100 |  | O=C(N[C@H](c1cn2nc(C[C@H]3C[C@@H](C(F)(F)F)CNC3=O)c(C3CCOCC3)nc2n1)C1CCC(F)(F)CC1)c1ccnn1C1CC1 [Compound 419] |
| 100 to 1000 | < 100 |  | CCn1nccc1C(=O)N[C@H](c1cn2nc(C[C@H]3C[C@@H](C(F)(F)F)CNC3=O)c(N3C[C@H](C)O[C@@H](C)C3)nc2n1)C1CCC(F)(F)CC1 [Compound 420, N—((S)-(4,4-difluorocyclohexyl)(3-((2S,6S)-2,6-dimethylmorpholino)-2-(((3R,5R)-2-oxo-5-(trifluoromethyl)piperidin-3-yl)methyl)imidazo[1,2-b][1,2,4]triazin-6-yl)methyl)-1-ethyl-1H-pyrazole-5-carboxamide] |
| > 1000 | < 100 |  | CCn1nccc1C(=O)N[C@H](c1cn2nc(C[C@H]3CC4(CC4)CNC3=O)c(C3CCOCC3)nc2n1)C1CCC(F)(F)CC1 [Compound 423] |
| > 1000 | < 100 |  | CCn1nccc1C(=O)N[C@H](c1cn2nc(C[C@H]3C(=O)NC4CC3C4)c(C3CCOCC3)nc2n1)C1CCC(F)(F)CC1 [Compound 426] |
| > 1000 | 100 to 1000 |  | CCn1nccc1C(=O)N[C@H](c1cn2nc(C[C@@H]3C(=O)NC[C@@H]4C[C@@H]43)c(C3CCOCC3)nc2n1)C1CCC(F)(F)CC1 [Compound 427] |
| 100 to 1000 | < 100 |  | O=C(N[C@H](c1cn2nc(C[C@H]3C[C@@H](C(F)(F)F)CNC3=O)c(C3CCOCC3)nc2n1)C1CCC(F)(F)CC1)c1ccnn1CCN1CCCC1C(F)(F)F (stereo partly drawn) [Compound 430, N—((S)-(4,4-difluorocyclohexyl)(2-(((3R,5R)-2-oxo-5-(trifluoromethyl)piperidin-3-yl)methyl)-3-(tetrahydro-2H-pyran-4-yl)imidazo[1,2-b][1,2,4]triazin-6-yl)methyl)-1-(2-(2-(trifluoromethyl)pyrrolidin-1-yl)ethyl)-1H-pyrazole-5-carboxamide] |
| > 1000 | 100 to 1000 |  | CCn1nccc1C(=O)N[C@H](c1cn2nc(CN3C[C@@H](C(F)(F)F)CNC3=O)c(C3CCOCC3)nc2n1)C1CCC(F)(F)CC1 [Compound 436] |
